Assay results reported in ChEMBL document CHEMBL6115029, “Discovery of Daraxonrasib (RMC-6236), a Potent and Orally Bioavailable RAS(ON) Multi-selective, Noncovalent Tri-complex Inhibitor for the Treatment of Patients with Multiple RAS-Addicted Cancers” (J Med Chem, 2025).
In brackets after ≈: the same amount, converted by molar mass.

What was measured:
[1] = Apparent permeability across apical to basolateral side in human Caco-2 cells at 5 uM incubated for 2 hrs by LC-MS/MS analysis; format: ADME, cell-based
[2] = tested on: A-375; experiment: Cytotoxicity against human A-375 cells assessed as reduction in cell viability incubated for 120 hrs by CellTiter-Glo luminescence assay; format: functional, cell-based; conditions: A-375, 120 h
[3] = Binding affinity to Cyclophilin A/Avi-tagged KRAS G12D mutant (1 to 169 residues) (unknown origin) assessed as dissociation constant by SPR analysis; set-up: species or system Homo sapiens
[4] = Binding affinity to Cyclophilin A/Avi-tagged KRAS G12C mutant (1 to 169 residues) (unknown origin) assessed as dissociation constant by SPR analysis; set-up: species or system Homo sapiens
[5] = Kinetic solubility of compound in PBS at pH 7.4 measured after 5 hrs by UV analysis; format: physicochemical; conditions: read-out: Kinetic_solubility
[6] = Inhibition of ERK1/2 phosphorylation in human ASPC1 cells harboring KRAS G12D mutant incubated for 4 hrs by AlphaLISA assay; format: cell-based; conditions: ASPC1, 4 h
[7] = tested on: NCI-H358; experiment: Cytotoxicity against human NCI-H358 cells harboring KRAS G12C mutant cultured as 2D cells assessed as reduction in cell viability incubated for 120 hrs by CellTiter-Glo luminescence assay; format: functional, cell-based; conditions: NCI-H358, 120 h
[8] = Inhibition of ERK1/2 phosphorylation in human CAPAN-1 cells harboring KRAS G12V mutant incubated for 4 hrs by AlphaLISA assay; format: cell-based; conditions: CAPAN-1, 4 h
[9] = Oral bioavailability in female BALB/c mouse at 10 mg/kg measured after 24 hrs by LC-MS/MS analysis; format: ADME, organism-based; conditions: in vivo
[10] = tested on: CAPAN-1; experiment: Cytotoxicity against human CAPAN-1 cells harboring KRAS G12V mutant cultured as 2D cells assessed as reduction in cell viability incubated for 120 hrs by CellTiter-Glo luminescence assay; format: functional, cell-based; conditions: CAPAN-1, 120 h
[11] = Inhibition of ERK1/2 phosphorylation in human NCI-H358 cells harboring KRAS G12C mutant incubated for 4 hrs by AlphaLISA assay; format: cell-based; conditions: NCI-H358, 4 h
[12] = Inhibition of 6His-tagged KRAS G12V mutant(1 to 169 residues)/GST-tagged GMPPNP-bound BRAF RBD (155 to 229 reisudes)/Cyclophilin A (unknown origin) tri-complex protein-protein interaction incubated for 3 hrs by TR-FERT based disruption assay; set-up: species or system Homo sapiens
[13] = Inhibition of 6His-tagged wildtype KRAS (1 to 169 residues)/GST-tagged GMPPNP-bound BRAF RBD (155 to 229 reisudes)/Cyclophilin A (unknown origin) tri-complex protein-protein interaction incubated for 3 hrs by TR-FERT based disruption assay; set-up: species or system Homo sapiens
[14] = Inhibition of 6His-tagged KRAS G12D mutant(1 to 169 residues)/GST-tagged GMPPNP-bound BRAF RBD (155 to 229 reisudes)/Cyclophilin A (unknown origin) tri-complex protein-protein interaction incubated for 3 hrs by TR-FERT based disruption assay; set-up: species or system Homo sapiens
[15] = tested on: ASPC1; experiment: Cytotoxicity against human ASPC1 cells harboring KRAS G12D mutant cultured as 2D cells assessed as reduction in cell viability incubated for 120 hrs by CellTiter-Glo luminescence assay; format: functional, cell-based; conditions: ASPC1, 120 h
[16] = Inhibition of 6His-tagged KRAS G12C mutant(1 to 169 residues)/GST-tagged GMPPNP-bound BRAF RBD (155 to 229 reisudes)/Cyclophilin A (unknown origin) tri-complex protein-protein interaction incubated for 3 hrs by TR-FERT based disruption assay; set-up: species or system Homo sapiens
[17] = Metabolic stability in mouse liver microsomes assessed as half-life at 2 uM measured upto 60 mins in presence of NADPH by LC-MS/MS analysis; format: ADME, Microsome
[18] = Efflux ratio of apparent permeability in human Caco-2 cells at 5 uM incubated for 2 hrs by LC-MS/MS analysis; format: ADME, cell-based
[19] = target: Peptidyl-prolyl cis-trans isomerase A (Homo sapiens, UniProt P62937); experiment: Binding affinity to Avi-tagged Cyclophilin A (unknown origin) assessed as dissociation constant by SPR analysis
[20] = Clearance in female BALB/c mouse at 1 mg/kg, iv measured after 24 hrs by LC-MS/MS analysis; format: ADME, organism-based; conditions: in vivo
[21] = Binding affinity to Cyclophilin A/Avi-tagged KRAS G12V mutant (1 to 169 residues) (unknown origin) assessed as dissociation constant by SPR analysis; set-up: species or system Homo sapiens
[22] = tested on: NCI-H1975; experiment: Cytotoxicity against human NCI-H1975 cells harboring wildtype KRAS cultured as 2D cells assessed as reduction in cell viability incubated for 120 hrs by CellTiter-Glo luminescence assay; format: functional, cell-based; conditions: NCI-H1975, 120 h
[23] = Half-life in female BALB/c mouse at 1 mg/kg, iv measured after 24 hrs by LC-MS/MS analysis; format: ADME, organism-based; conditions: in vivo
[24] = Oral bioavailability in female BALB/c mouse plasma at 10 mg/kg measured after 24 hrs by LC-MS/MS analysis; format: ADME, organism-based
[25] = Clearance in female BALB/c mouse plasma at 1 mg/kg, iv measured after 24 hrs by LC-MS/MS analysis; format: ADME, organism-based
[26] = Lipophilicity, logD of compound at pH 7.4 by Agilent 1290 II uPLC analysis; format: physicochemical; conditions: buffer
[27] = Oral bioavailability in female BALB/c mouse blood at 10 mg/kg measured after 24 hrs by LC-MS/MS analysis; format: ADME, organism-based
[28] = Clearance in female BALB/c mouse blood at 1 mg/kg, iv measured after 24 hrs by LC-MS/MS analysis; format: ADME, organism-based
[29] = Kinetic solubility of compound in PBS at pH 5.0 measured after 5 hrs by UV analysis; format: physicochemical; conditions: read-out: Kinetic_solubility

Peptidyl-prolyl cis-trans isomerase A, sequence (P62937 whole entry): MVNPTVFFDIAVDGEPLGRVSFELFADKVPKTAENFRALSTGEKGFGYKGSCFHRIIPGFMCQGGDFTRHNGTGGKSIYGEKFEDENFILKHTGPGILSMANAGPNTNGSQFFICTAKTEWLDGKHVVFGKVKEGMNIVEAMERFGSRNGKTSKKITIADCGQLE

SMILES: CCn1c(-c2cccnc2[C@H](C)OC)c2c3cc(ccc31)-c1csc(n1)C[C@H](NC(=O)[C@H](C(C)C)N(C)C(C)=O)C(=O)N1CCC[C@H](N1)C(=O)OCC(C)(C)C2
- Papp A→B at 2 h, 5 µM [1]: 0.02 ×10⁻⁶ cm/s
- EC50 [2]: > 10 µM
- Kd [3]: 5.05 µM
- Kd [4]: 1.54 µM
- solubility kinetic at 5 h [5]: 6 µM (≈ 4.72 µg/mL)
- EC50 [6]: 0.857 µM
- EC50 [7]: 0.199 µM
- EC50 [8]: 0.032 µM
- bioavailability [9]: ≤ 0.4%
- EC50 [10]: 0.149 µM
- EC50 [11]: 0.116 µM
- IC50 [12]: 3.55 µM
- IC50 [13]: 4.92 µM
- IC50 [14]: ≥ 21.2 µM
- EC50 [15]: ≥ 0.715 µM
- IC50 [16]: 1.97 µM
- half-life at 2 µM [17]: 6 min
- efflux ratio at 2 h, 5 µM [18]: 13.6
- Kd [19]: 0.313 µM
- clearance [20]: 95 mL/min/kg
- Kd [21]: 2.7 µM
- EC50 [22]: 0.057 µM
- half-life [23]: 36 min

SMILES: CCn1c(-c2cccnc2[C@H](C)OC)c2c3cc(ccc31)-c1cccc(c1)C[C@H](NC(=O)[C@H](C(C)C)N(C)C(C)=O)C(=O)N1CCC[C@H](N1)C(=O)OCC(C)(C)C2
- Kd [3]: 10.7 µM
- Kd [4]: 2.82 µM
- EC50 [7]: 1.53 µM
- EC50 [10]: 1.14 µM
- IC50 [12]: 3.52 µM
- IC50 [14]: 26.1 µM
- EC50 [15]: 4.41 µM
- IC50 [16]: 2.04 µM
- Kd [19]: 1.15 µM
- Kd [21]: 4.93 µM
- EC50 [22]: > 10 µM

SMILES: CCn1c(-c2cc(N3CCN(CCOC)CC3)cnc2[C@H](C)OC)c2c3cc(ccc31)-c1csc(n1)C[C@H](NC(=O)[C@H]1C[C@@H]1C)C(=O)N1CCC[C@H](N1)C(=O)OCC(C)(C)C2
- Papp A→B at 2 h, 5 µM [1]: 1 ×10⁻⁶ cm/s
- bioavailability [24]: 57%
- EC50 [2]: > 10 µM
- clearance [25]: 30 mL/min/kg
- logD [26]: 4.7
- solubility kinetic at 5 h [5]: 45 µM (≈ 38.5 µg/mL)
- bioavailability [27]: 71%
- EC50 [6]: 0.0077 µM
- EC50 [7]: 0.0018 µM
- EC50 [8]: 0.0008 µM
- EC50 [10]: 0.0028 µM
- EC50 [11]: 0.0034 µM
- IC50 [12]: 0.078 µM
- IC50 [13]: 0.152 µM
- IC50 [14]: 0.385 µM
- EC50 [15]: 0.0061 µM
- IC50 [16]: 0.054 µM
- half-life at 2 µM [17]: 103 min
- efflux ratio at 2 h, 5 µM [18]: 9
- Kd [19]: 0.13 µM
- clearance [28]: 6.67 mL/min/kg
- EC50 [22]: 0.0094 µM

SMILES: CCn1c(-c2cccnc2[C@H](C)OC)c2c3cc(ccc31)-c1csc(n1)C[C@H](NC(=O)[C@H]1C[C@@H]1C)C(=O)N1CCC[C@H](N1)C(=O)OCC(C)(C)C2
- Papp A→B at 2 h, 5 µM [1]: 10.7 ×10⁻⁶ cm/s
- EC50 [2]: 8.37 µM
- solubility kinetic at 5 h [29]: < 2 µM
- logD [26]: 4.7
- solubility kinetic at 5 h [5]: 3 µM (≈ 2.14 µg/mL)
- EC50 [6]: 0.818 µM
- EC50 [7]: 0.083 µM
- EC50 [8]: 0.025 µM
- bioavailability [9]: 75%
- EC50 [10]: 0.129 µM
- EC50 [11]: 0.068 µM
- IC50 [12]: 0.165 µM
- IC50 [13]: 0.344 µM
- IC50 [14]: 0.927 µM
- EC50 [15]: 0.236 µM
- IC50 [16]: 0.117 µM
- half-life at 2 µM [17]: 53 min
- efflux ratio at 2 h, 5 µM [18]: 1
- Kd [19]: 1.76 µM
- clearance [20]: 10 mL/min/kg
- EC50 [22]: 0.069 µM
- half-life [23]: 54 min

SMILES: CCn1c(-c2cc(N3CCN(C4CC4)CC3)cnc2[C@H](C)OC)c2c3cc(ccc31)-c1csc(n1)C[C@H](NC(=O)[C@H]1[C@@H]3COC[C@@H]31)C(=O)N1CCC[C@H](N1)C(=O)OCC(C)(C)C2
- Papp A→B at 2 h, 5 µM [1]: 0.9 ×10⁻⁶ cm/s
- bioavailability [24]: 88%
- EC50 [2]: 8.37 µM
- clearance [25]: 6.67 mL/min/kg
- logD [26]: 5.2
- solubility kinetic at 5 h [5]: 20 µM (≈ 17.3 µg/mL)
- bioavailability [27]: 63%
- EC50 [6]: 0.0041 µM
- EC50 [7]: 0.0008 µM
- EC50 [8]: 0.0005 µM
- EC50 [10]: 0.0021 µM
- EC50 [11]: 0.0009 µM
- IC50 [12]: 0.043 µM
- IC50 [13]: 0.076 µM
- IC50 [14]: 0.175 µM
- EC50 [15]: 0.0049 µM
- IC50 [16]: 0.031 µM
- half-life at 2 µM [17]: 60 min
- efflux ratio at 2 h, 5 µM [18]: 7
- Kd [19]: 0.216 µM
- clearance [28]: 6.67 mL/min/kg
- EC50 [22]: 0.0019 µM
